Results from US4555518A, “Fluoroalkoxy substituted benzimidazoles useful as gastric acid secretion inhibitors” (Byk Gulden Lomberg Chemische Fabrik GmbH, priority 1983, dated 1985).

Assays:
[1] = tested on: gastric lesion formation (rat stomach); assay: Shay rat: inhibition of gastric lesion formation induced by pyloric ligature and oral acetylsalicylic acid (protective effect on the stomach); assay type: in vivo; details: perorally, rats, 1 h before pyloric ligature, 4 h, 100 mg/kg acetylsalicylic acid, dose reducing lesion index by 50% vs control
Protocol: (§1) In these experiments, the compounds according to the invention were compared with prior art compounds (A-D) of European Patent Applications Nos. 0 005 129 and 0 074 341. The compounds investigated are numbered as follows: The influence of the compounds of the prior art and the compounds according to the invention on gastric lesion formation induced by pyloric ligature (4 h; so-called Shay rat) and oral administration of 100 mg/kg of acetylsalicyclic acid, and the gastric secretion (HCl) in the course of 4 h in rats is shown in the following table. | *ED25 and ED50 = dose which reduces the lesion index or the HCL | secretion(4h) in the rat stomach by 25 and, respectively, 50% in the | treated group in comparison with the control group. The antiulcerogenic action was tested by the so-called Shay rat method: Ulcers are caused in rats which have been fasted for 24 hours (female, 180-200 g, 4 animals per cage on a high grid) by pyloric ligature (under diethyl ether anesthesia) and oral administration of 100 mg/10 ml/kg of acetylsalicylic acid. The substances to be tested are administered orally (10 ml/kg) one hour before the pyloric ligature. The wound is closed by means of Michel clamps. 4 hours thereafter, the animals are sacrificed under ether anesthesia by Atlas dislocation and resection of the stomach. The stomach is opened longitudinally and attached to a cork plate, after the amount of gastric juice secreted (volume) and later its HCl content (titration with sodium hydroxide solution) have first been determined; the number and size (=diameter) of the ulcers present are determined under a stereomicroscope at 10-fold magnification. The product of the degree of severity (according to the following points scale) and number of ulcers serves as the individual lesion index. The reduction in the average lesion index of each treated group compared with the control group (=100%) serves as a measure of the antiulcerogenic effect.

[2] = tested on: gastric secretion (HCl) (rat stomach); assay: Shay rat: inhibition of gastric secretion (HCl) in the course of 4 h; assay type: in vivo; details: for ED25 / ED50: Rattus norvegicus, po, perorally, rats; for ED25: dose reducing HCl secretion (4 h) by 25% vs control; for ED50: dose reducing HCl secretion (4 h) by 50% vs control; for Gastric secretion (rats): % inhibition of HCl secretion: after administration of the antiulcerous ED50, perorally, 4 h
Protocol: as §1, with “group. | **after administration of the antiulcerous ED50.” for “group.”

Row | SMILES | ED50 [1] | ED25 [2] | ED50 [2] | Gastric secretion (rats): % inhibition of HCl secretion [2]
1 | COc1ccnc(C[S+]([O-])c2nc3cc(OC(F)(F)F)ccc3[nH]2)c1 (stereo not drawn) [Serial No. 1, 2-[(4-methoxy-2-pyridyl)methylsulfinyl]-5-trifluoromethoxy-1H-benzimidazole] | 0.6 mg/kg | 0.5 mg/kg | 1.1 mg/kg | 32%
2 | COc1ccnc(CSc2nc3cc(OC(F)(F)F)ccc3[nH]2)c1C [Serial No. 2, 2-[(4-methoxy-3-methyl-2-pyridyl)methylthio]-5-trifluoromethoxy-1H-benzimidazole] | 0.3 mg/kg | 0.35 mg/kg | 0.5 mg/kg | 20%
3 | COc1ccnc(C[S+]([O-])c2nc3cc(OC(F)(F)F)ccc3[nH]2)c1C (stereo not drawn) [Serial No. 3, 2-[(4-methoxy-3-methyl-2-pyridyl)methylsulfinyl]-5-trifluoromethoxy-1H-benzimidazole] | 0.3 mg/kg | < 0.3 mg/kg | 0.4 mg/kg | 32%
4 | COc1cc(C[S+]([O-])c2nc3cc(OC(F)(F)F)ccc3[nH]2)ncc1C (stereo not drawn) [Serial No. 4, 2-[(4-methoxy-5-methyl-2-pyridyl)methylsulfinyl]-5-trifluoromethoxy-1H-benzimidazole] | 0.9 mg/kg | 0.6 mg/kg | 1.6 mg/kg | 32%
5 | COc1ccnc(C[S+]([O-])c2nc3cc(OC(F)(F)C(F)F)ccc3[nH]2)c1 (stereo not drawn) [Serial No. 5, 2-[(4-methoxy-2-pyridyl)methylsulfinyl]-5-(1,1,2,2-tetrafluoroethoxy)-1H-benzimidazole] | 0.7 mg/kg | 0.5 mg/kg | 1.2 mg/kg | 33%
6 | COc1ccnc(C[S+]([O-])c2nc3cc(OC(F)(F)C(F)F)ccc3[nH]2)c1C (stereo not drawn) [Serial No. 6, 2-[(4-methoxy-3-methyl-2-pyridyl)methylsulfinyl]-5-(1,1,2,2-tetrafluoroethoxy)-1H-benzimidazole] | 0.5 mg/kg | 0.3 mg/kg | 0.7 mg/kg | 35%
7 | COc1ccnc(CSc2nc3cc(OC(F)(F)C(F)F)ccc3[nH]2)c1C [Serial No. 7, 2-[(4-methoxy-3-methyl-2-pyridyl)methylthio]-5-(1,1,2,2-tetrafluoroethoxy)-1H-benzimidazole] | 0.5 mg/kg | 0.35 mg/kg | 0.7 mg/kg | 40%
8 | COc1c(C)cnc(C[S+]([O-])c2nc3cc(OC(F)(F)F)ccc3[nH]2)c1C (stereo not drawn) [Serial No. 8, 2-[(4-methoxy-3,5-dimethyl-2-pyridyl)methylsulfinyl]-5-trifluoromethoxy-1H-benzimidazole] | 0.4 mg/kg | 1 mg/kg | 1.5 mg/kg | 20%
9 | COc1c(C)cnc(CSc2nc3cc(OC(F)(F)F)ccc3[nH]2)c1C [Serial No. 9, 2-[(4-methoxy-3,5-dimethyl-2-pyridyl)methylthio]-5-trifluoromethoxy-1H-benzimidazole] | 1 mg/kg | 1.4 mg/kg | 2 mg/kg | 10%
10 | COc1ccnc(C[S+]([O-])c2nc3cc(OCC(F)(F)F)ccc3[nH]2)c1C (stereo not drawn) [Serial No. 10, 2-[(4-methoxy-3-methyl-2-pyridyl)methylsulfinyl]-5-(2,2,2-trifluoroethoxy)-1H-benzimidazole] | 0.5 mg/kg | 0.5 mg/kg | 0.7 mg/kg | 25%
11 | COc1ccnc(CSc2nc3cc(OCC(F)(F)F)ccc3[nH]2)c1C [Serial No. 11, 2-[(4-methoxy-3-methyl-2-pyridyl)methylthio]-5-(2,2,2-trifluoroethoxy)-1H-benzimidazole] | 0.5 mg/kg | 0.5 mg/kg | 0.7 mg/kg | 25%
12 | COc1ccnc(C[S+]([O-])c2nc3cc(OC(F)F)ccc3[nH]2)c1C (stereo not drawn) [Serial No. 12, 5-difluoromethoxy-2-[(4-methoxy-3-methyl-2-pyridyl)methylsulfinyl]-1H-benzimidazole] | ~0.3 mg/kg | ~0.3 mg/kg | ~0.6 mg/kg | ~ 20%
13 | COc1ccnc(C[S+]([O-])c2nc3cc(OC(F)F)c(OC(F)F)cc3[nH]2)c1 (stereo not drawn) [Serial No. 13, 5,6-bis(difluoromethoxy)-2-[(4-methoxy-2-pyridyl)methylsulfinyl]-1H-benzimidazole] | ~1.2 mg/kg | ~1.1 mg/kg | ~1.7 mg/kg | ~ 30%
14 | COc1ccnc(C[S+]([O-])c2nc3cc(OC(F)F)c(OC(F)F)cc3[nH]2)c1C (stereo not drawn) [Serial No. 14, 5,6-bis(difluoromethoxy)-2-[(4-methoxy-3-methyl-2-pyridyl)methylsulfinyl]-1H-benzimidazole] | 0.2 mg/kg | ~0.3 mg/kg | 0.6 mg/kg | 20%
15 | COc1ccnc(CSc2nc3cc(OC(F)F)c(OC(F)F)cc3[nH]2)c1C [Serial No. 15, 5,6-bis(difluoromethoxy)-2-[(4-methoxy-3-methyl-2-pyridyl)methylthio]-1H-benzimidazole] | 0.6 mg/kg | 0.5 mg/kg | 1 mg/kg | 30%
16 | COc1cc2[nH]c([S+]([O-])Cc3nccc(OC)c3C)nc2cc1OC(F)F (stereo not drawn) [Serial No. 16, 5-difluoromethoxy-6-methoxy-2-[(4-methoxy-3-methyl-2-pyridyl)methylsulfinyl]-1H-benzimidazole] | 0.2 mg/kg | – | ~0.8 mg/kg | –
17 | COc1cc2[nH]c(SCc3nccc(OC)c3C)nc2cc1OC(F)F [Serial No. 17, 5-difluoromethoxy-6-methoxy-2-[(4-methoxy-3-methyl-2-pyridyl)methylthio]-1H-benzimidazole] | ~0.3 mg/kg | ~0.3 mg/kg | ~0.8 mg/kg | ~ 25%
18 | COc1ccnc(C[S+]([O-])c2nc3cc(OC(F)(F)Cl)ccc3[nH]2)c1 (stereo not drawn) [Serial No. 18, 5-chlorodifluoromethoxy-2-[(4-methoxy-2-pyridyl)methylsulfinyl]-1H-benzimidazole] | 1.3 mg/kg | < 1 mg/kg | 1.8 mg/kg | 35%
19 | COc1ccc2[nH]c(SCc3ncc(C)c(OC)c3C)nc2c1 [Serial No. A, 5-methoxy-2-[(4-methoxy-3,5-dimethyl-2-pyridylmethyl)thio]-1H--benzimidazole, reference compound] | 9 mg/kg | 12 mg/kg | 25 mg/kg | 20%
20 | COc1ccc2[nH]c([S+]([O-])Cc3ncc(C)c(OC)c3C)nc2c1 (stereo not drawn) [Serial No. B, 5-methoxy-2-[(4-methoxy-3,5-dimethyl-2-pyridylmethyl)sulfinyl]-1H--benzimidazole, reference compound] | 2.2 mg/kg | 1.9 mg/kg | 4.6 mg/kg | 29%
21 | COc1ccc2[nH]c(SCc3cc(OC)c(C)cn3)nc2c1 [Serial No. C, 5-methoxy-2-[(4-methoxy-5-methyl-2-pyridylmethyl)thio]-1H--benzimidazole, reference compound] | ~30 mg/kg | > 60.6 mg/kg | – | –
22 | COc1ccc2[nH]c([S+]([O-])Cc3cc(OC)c(C)cn3)nc2c1 (stereo not drawn) [Serial No. D, 5-methoxy-2-[(4-methoxy-5-methyl-2-pyridylmethyl)sulfinyl]-1H--benzimidazole, reference compound] | ~5 mg/kg | 8 mg/kg | 18 mg/kg | 10%
